Reference: patent US20160298129A1, “ALS INHIBITOR HERBICIDE TOLERANT MUTANT PLANTS” (BAYER CROPSCIENCE NV, priority 2013, published 2016)

How the values were obtained:
AHAS D376E-W574L = AHAS D376E-W574L (Arabidopsis thaliana, UniProt P17597, D376E/E575Q/W574L); test: biochemical; conditions: for Resistance Factor: AHAS D376E-W574L
Protocol: (§1) Bacteria are grown at 37° C. in LB-medium containing 100 mg/l carbenicillin and 25 mg/l canamycin, induced with 1 mM isopropyl-β-D-thiogalactopyranoside at an OD600 of 0.6, cultivated for 16 hours at 18° C. and harvested by, e.g., centrifugation. Bacterial pellets are resuspended in 100 mM sodium phosphate buffer pH 7.0 containing 0.1 mM thiamine-pyrophosphate, 1 mM MgCl2, and 1 μM FAD at a concentration of 1 gram wet weight per 25 ml of buffer and disrupted by, e.g., sonification. The crude protein extract obtained after centrifugation is used for ALS activity measurements.
(§2) ALS protein can be extracted from leaves or tissue cultures, such as B. napus or B. juncea leaves, or B. napus or B. juncea tissue cultures as described by Ray (Plant Physiol, 1984, 75:827-831). An ALS assays can be carried out in 96-well microtiter plates using a modification of the procedure described by Ray (1984): The reaction mixture contains 20 mM potassium phosphate buffer pH 7.0, 20 mM sodium pyruvate, 0.45 mM thiamine-pyrophosphate, 0.45 mM MgCl2, 9 μM FAD. ALS enzyme and various concentrations of ALS inhibitors can be mixed in a final volume of 90 μl Assays can be initiated by adding enzyme and the assays can be terminated after 75 min incubation at 30° C. by the addition of 40 μl 0.5 M H2SO4.

AHAS P197S-D376E = AHAS P197S-D376E (Arabidopsis thaliana, UniProt P17597, D376E/E575Q/P197S); test: biochemical; conditions: for Resistance Factor: AHAS P197S-D376E
Sequence of AHAS P197S-D376E (P17597 56-670 P197S/D376E/E575Q): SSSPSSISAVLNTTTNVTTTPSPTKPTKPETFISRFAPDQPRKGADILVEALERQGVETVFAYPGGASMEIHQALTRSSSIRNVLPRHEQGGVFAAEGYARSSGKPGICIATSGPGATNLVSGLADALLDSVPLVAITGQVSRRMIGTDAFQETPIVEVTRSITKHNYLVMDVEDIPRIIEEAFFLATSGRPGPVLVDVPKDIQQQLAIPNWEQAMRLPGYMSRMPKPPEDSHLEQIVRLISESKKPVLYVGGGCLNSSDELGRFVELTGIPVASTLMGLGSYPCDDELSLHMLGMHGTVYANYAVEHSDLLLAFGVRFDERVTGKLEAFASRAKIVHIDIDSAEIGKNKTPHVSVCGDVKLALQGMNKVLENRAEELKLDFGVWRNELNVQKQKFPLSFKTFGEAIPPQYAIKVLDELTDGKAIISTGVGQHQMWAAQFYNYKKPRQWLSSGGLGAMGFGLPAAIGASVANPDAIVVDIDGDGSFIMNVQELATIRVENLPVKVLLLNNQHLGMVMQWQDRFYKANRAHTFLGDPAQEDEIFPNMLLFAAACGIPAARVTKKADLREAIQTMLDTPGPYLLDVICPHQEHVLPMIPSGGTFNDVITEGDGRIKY
Protocol: as §1, §2

AHAS D376E = AHAS D376E (Arabidopsis thaliana, UniProt P17597, D376E/E575Q); test: biochemical; conditions: for Resistance Factor: AHAS D376E
Sequence of AHAS D376E (P17597 56-670 D376E/E575Q): as the sequence (P17597 56-670 P197S/D376E/E575Q) above, with S142P counted along it
Protocol: as §1, §2

AHAS P197S-W574L = AHAS P197S-W574L (Arabidopsis thaliana, UniProt P17597, E575Q/P197S/W574L); test: biochemical; conditions: for Resistance Factor: AHAS P197S-W574L
Sequence of AHAS P197S-W574L (P17597 56-670 P197S/W574L/E575Q): as the sequence (P17597 56-670 P197S/D376E/E575Q) above, with E321D, W519L counted along it
Protocol: as §1, §2

AHAS P197S-D376E-W574L = AHAS P197S-D376E-W574L (Arabidopsis thaliana, UniProt P17597, D376E/E575Q/P197S/W574L); test: biochemical; conditions: for Resistance Factor: AHAS P197S-D376E-W574L
Sequence of AHAS P197S-D376E-W574L (P17597 56-670 P197S/D376E/W574L/E575Q): as the sequence (P17597 56-670 P197S/D376E/E575Q) above, with W519L counted along it
Protocol: as §1, §2

[1] = tested on: oilseed rape homozygous for HETO133 and HETO134 (133-134); test: Field herbicide tolerance, visible phytotoxicity (ALS I W574L, ALS III W574L); format: in vivo, Brassica napus; conditions: gai/ha: imazamox 40, bispyribac-sodium 50, propoxycarbazone-sodium 70, mesosulfuron-methyl 60, pyroxsulam 12.5 + cloquintocet-mexyl 37.5, each + rapeseed oil methylated 366.5
Source text: (§3) Seeds of spring oilseed rape homozygous for HETO139 and HETO134 were sown in a field according to typical practical agricultural methods together with seeds homozygous for HETO134 and HETO133 (comprising a W574L mutation on ALS III, which were obtained in the same way as HETO134), and with seeds homozygous for HETO134 and HETO132 (comprising a P197S and a W574L mutation on ALS III, which were obtained in essentially the same way as HETO139). Several ALS inhibitor herbicides were applied to the oilseed rape plants by using specific spray equipment for small plot applications.

AHAS P197S = AHAS P197S (Arabidopsis thaliana, UniProt P17597, E575Q/P197S); format: biochemical
Sequence of AHAS P197S (P17597 56-670 P197S/E575Q): as the sequence (P17597 56-670 P197S/D376E/E575Q) above, with E321D counted along it
Protocol: as §1, §2

AHAS W574L = AHAS W574L (Arabidopsis thaliana, UniProt P17597, E575Q/W574L); format: biochemical
Sequence of AHAS W574L (P17597 56-670 W574L/E575Q): as the sequence (P17597 56-670 P197S/D376E/E575Q) above, with S142P, E321D, W519L counted along it
Protocol: as §1, §2

[2] = tested on: oilseed rape homozygous for HETO132 and HETO134 (132-134); test: Field herbicide tolerance, visible phytotoxicity (ALS I W574L, ALS III P197S-W574L); format: in vivo, Brassica napus; conditions: gai/ha: imazamox 40, bispyribac-sodium 50, propoxycarbazone-sodium 70, mesosulfuron-methyl 60, pyroxsulam 12.5 + cloquintocet-mexyl 37.5, each + rapeseed oil methylated 366.5
Source text: as §3

[3] = tested on: oilseed rape homozygous for HETO139 and HETO134 (139-134); test: Field herbicide tolerance, visible phytotoxicity (ALS I W574L, ALS III P197S-D376E); format: in vivo, Brassica napus; conditions: gai/ha: imazamox 40, bispyribac-sodium 50, propoxycarbazone-sodium 70, mesosulfuron-methyl 60, pyroxsulam 12.5 + cloquintocet-mexyl 37.5, each + rapeseed oil methylated 366.5
Source text: as §3

[4] = tested on: wild-type (WT) oilseed rape; test: Field herbicide tolerance, visible phytotoxicity; format: in vivo, Brassica napus; conditions: gai/ha: imazamox 40, bispyribac-sodium 50, propoxycarbazone-sodium 70, mesosulfuron-methyl 60, pyroxsulam 12.5 + cloquintocet-mexyl 37.5, each + rapeseed oil methylated 366.5

Sequence of AHAS D376E-W574L (P17597 56-670 D376E/W574L/E575Q): as the sequence (P17597 56-670 P197S/D376E/E575Q) above, with S142P, W519L counted along it

SMILES | Resistance Factor (AHAS D376E-W574L) | Resistance Factor (AHAS P197S-D376E) | Resistance Factor (AHAS D376E) | Resistance Factor (AHAS P197S-W574L) | Resistance Factor (AHAS P197S-D376E-W574L) | Percentage phytotoxicity ([1]; 9 DAA) [%] | Percentage phytotoxicity ([1]; 16 DAA) [%] | Percentage phytotoxicity ([1]; 24 DAA) [%] | Resistance Factor (AHAS P197S) | Resistance Factor (AHAS W574L) | Percentage phytotoxicity ([2]; 9 DAA) [%] | Percentage phytotoxicity ([2]; 16 DAA) [%] | Percentage phytotoxicity ([2]; 24 DAA) [%] | IC50 (AHAS D376E-W574L) [µM] | IC50 (AHAS P197S-D376E) [µM] | IC50 (AHAS D376E) [µM] | IC50 (AHAS P197S-W574L) [µM] | IC50 (AHAS P197S-D376E-W574L) [µM] | Percentage phytotoxicity ([3]; 9 DAA) [%] | Percentage phytotoxicity ([3]; 16 DAA) [%] | also measured
COC(=O)c1ccc(C(F)(F)F)nc1S(=O)(=O)NC(=O)Nc1nc(OC)cc(OC)n1 [Flupyrsulfuron-methyl] | >47863 | >47863 | 2399 | >47863 | >47863 | – | – | – | – | – | – | – | – | – | – | – | – | – | – | – | –
COc1cc(OC)nc(Oc2cccc(Oc3nc(OC)cc(OC)n3)c2C(=O)O)n1 [Bispyribac-sodium, bispyribac-sodium] | >5623 | 447 | 56 | >5623 | >5623 | 56.7 | 88.3 | 92.7 | 4 | 447 | 46.7 | 71.7 | 43.3 | > 100 | 7.94 | 1 | > 100 | > 100 | 40 | 65 | Percentage phytotoxicity ([3]; 24 DAA): 43.3%; Percentage phytotoxicity ([4]; 9 DAA): 76.7%; Percentage phytotoxicity ([4]; 16 DAA): 98.3%; Percentage phytotoxicity ([4]; 24 DAA): 100%
CCCOc1nn(C(=O)[N-]S(=O)(=O)c2ccccc2C(=O)OC)c(=O)n1C.[Na+] [Propoxycarbazone] | >4641 | >4641 | 1468 | >4641 | >4641 | – | – | – | 147 | 293 | – | – | – | – | – | – | – | – | – | – | –
COc1cc(OC)n2nc(S(=O)(=O)Nc3c(Cl)ccc(C)c3Cl)nc2n1 [Metosulam, metosulam] | >28840 | >28840 | 575 | >28840 | >28840 | – | – | – | 457 | 5754 | – | – | – | > 100 | > 100 | 2 | > 100 | > 100 | – | – | –
COC(=O)c1sccc1S(=O)(=O)NC(=O)Nc1nc(C)nc(OC)n1 [Thifensulfuron-Methyl, thifensulfuron-methyl] | >2511 | >2511 | 631 | >2511 | >2511 | – | – | – | 200 | 1585 | – | – | – | > 100 | > 100 | 25.1 | > 100 | > 100 | – | – | –
CCCOc1nn(C(=O)[N-]S(=O)(=O)c2ccccc2C(=O)OC)c(=O)n1C.[Na+] [PROPOXYCARBAZONE-SODIUM, propoxycarbazone-sodium] | – | – | – | – | – | 53.3 | 82.7 | 76.7 | – | – | 40 | 36.7 | 11.7 | – | – | – | – | – | 15 | 20 | Percentage phytotoxicity ([3]; 24 DAA): 1.7%; Percentage phytotoxicity ([4]; 9 DAA): 76.7%; Percentage phytotoxicity ([4]; 16 DAA): 97%; Percentage phytotoxicity ([4]; 24 DAA): 97.7%
COC(=O)c1ccc(I)cc1S(=O)(=O)[N-]C(=O)Nc1nc(C)nc(OC)n1.[Na+] [Iodosulfuron-methy-sodium, iodosulfuron-methyl-sodium] | >35030 | >35030 | 3503 | >35030 | >35030 | – | – | – | 139 | 555 | – | – | – | – | – | – | – | – | – | – | –
COC(=O)c1ccc(CNS(C)(=O)=O)cc1S(=O)(=O)NC(=O)Nc1nc(OC)cc(OC)n1 [Mesosulfuron-methyl, mesosulfuron-methyl] | >64730 | – | 12915 | >64730 | >64730 | 11.7 | 13.3 | 3.3 | 65 | 25770 | 11.7 | 11.7 | 20.3 | – | – | – | – | – | 9.3 | 13.3 | Percentage phytotoxicity ([3]; 24 DAA): 5%; Percentage phytotoxicity ([4]; 9 DAA): 76.7%; Percentage phytotoxicity ([4]; 16 DAA): 98%; Percentage phytotoxicity ([4]; 24 DAA): 96%
COCc1cnc(C2=NC(C)(C(C)C)C(=O)N2)c(C(=O)O)c1 (stereo not drawn) [Imazamox, imazamox] | >22 | >22 | 11 | >22 | >22 | 6.7 | 10 | 0 | 1 | >22 | 6.7 | 8.7 | 0 | > 100 | > 100 | 50.1 | > 100 | > 100 | 13.3 | 13.3 | Percentage phytotoxicity ([3]; 24 DAA): 0%; Percentage phytotoxicity ([4]; 9 DAA): 73.3%; Percentage phytotoxicity ([4]; 16 DAA): 98%; Percentage phytotoxicity ([4]; 24 DAA): 99%
COc1cc(OC)nc(NC(=O)NS(=O)(=O)c2ncccc2C(F)(F)F)n1 [Flazasulfuron, flazasulfuron] | >120226 | >120226 | 759 | >120226 | >120226 | – | – | – | 120 | 3802 | – | – | – | > 100 | > 100 | 0.631 | > 100 | > 100 | – | – | –
COC(=O)c1ccccc1S(=O)(=O)NC(=O)Nc1nc(C)nc(OC)n1 [Metsulfuron-methyl, metsulfuron-methyl] | >7547 | >7547 | 239 | >7547 | >7547 | – | – | – | 38 | 755 | – | – | – | – | – | – | – | – | – | – | –
COC(=O)c1csc(C)c1S(=O)(=O)NC(=O)n1nc(OC)n(C)c1=O [Thiencarbazone-methyl, thiencarbazone-methyl] | >7399 | >7399 | 371 | >7399 | >7399 | – | – | – | 1173 | 1173 | – | – | – | – | – | – | – | – | – | – | –
COc1cc(OC)nc(NC(=O)NS(=O)(=O)N(C)S(C)(=O)=O)n1 [Amidosulfuron, amidosulfuron] | >488 | >488 | >488 | >488 | >488 | – | – | – | >488 | >488 | – | – | – | > 100 | > 100 | > 100 | > 100 | > 100 | – | – | –
